US6797721B2, “Phorboxazole derivatives for treating cancer” (Parker Hughes Institute, priority 1999, dated 2004)
Read-outs that look alike come from different tables or passages of the source.

Tests used:
[1] = test system: NALM-6 human B-lineage acute lymphoblastic leukemia cells; assay: MTT cytotoxicity assay, NALM-6; type: cell-based
Method: (§1) The cytotoxicity assay of synthetic Phorboxazole A and various derivative compounds against human tumor cells was performed using the MTT (3-[4,5-dimethylthiazol-2-yl]-2,5-diphenyl tetrazolium bromide) assay (Boehringer Mannheim Corp., Indianapolis, Ind.). Briefly, exponentially growing brain tumor cells were seeded into a 96-well plate at a density of 2.5×10^4 cells/well and incubated for 36 hours at 37° C. prior to drug exposure. On the day of treatment, culture medium was carefully aspirated from the wells and replaced with fresh medium containing the various phorboxazole A derivative compounds as well as the tyrosine kinase inhibitory isoflavone genistein (GEN) at concentrations ranging from 0.1 to 250 μM. Triplicate wells were used for each treatment.
(§2) Human glioblastoma cells U373 (brain cancer), human B-lineage acute lymphoblastic leukemia cells NALM-6, and human breast cancer cells BT-20 were obtained from American Type Culture Collection (Rockville, Md.) and maintained as a continuous cell line in Dulbecco's modified Eagles's medium supplemented with 10% fetal bovine serum and antibiotics.
(§3) The cells were incubated with the various compounds for 24-36 hours at 37° C. in a humidified 5% CO2 atmosphere. To each well, 10 μl of MTT (0.5 mg/ml final concentration) was added and the plates were incubated at 37° C. for 4 hours to allow MTT to form formazan crystals by reacting with metabolically active cells. The fonnazan crystals were solubilized overnight at 37° C. in a solution containing 10% SDS in 0.01 M HCl. The absorbance of each well was measured in a microplate reader (Labsystems) at 540 nm and a reference wavelength of 690 nm. To translate the OD540 values into the number of live cells in each well, the OD540 values were compared to those on standard OD540-versus-cell number curves generated for each cell line. The percent survival was calculated using the formula: [formula]
(§4) The IC50 values were calculated by non-linear regression analysis.

[2] = test system: U373 human glioblastoma cells; assay: MTT cytotoxicity assay, U373; type: cell-based; details: U373 MG, read-out: IC50 [MTT]
Method: as §1, §2, §3, §4

[3] = test system: BT-20 human breast cancer cells; assay: MTT cytotoxicity assay, BT-20; type: cell-based
Method: as §1, §2, §3, §4

[4] = test system: BT-20 breast cancer cells; assay: In vitro adhesion assay to ECM proteins, BT-20; type: cell-based, human; details: laminin-, fibronectin-, and collagen-coated plates, 0.1 μM to 1 μM for 24 hours
Method: (§5) Human brain tumor cell lines U-373 MG and breast cancer cell lines BT-20 and MDA-MB-231 were obtained from American Type Culture Collection (ATCC, Rockville, Md.) and maintained in liquid culture using DMEM supplemented with 10% fetal bovine serum and antibiotics. Fibroblast conditioned medium was used as a source of chemoattractant in vitro invasion assays. Conditioned medium was prepared as described in the literature (Albini et.al., 1987, Cancer Res., 47:3239-3245).
(§6) In vitro adhesion assays were performed to (a) study the baseline adhesive properties of various breast cancer and glioblastoma cell lines and (b) evaluate the effects of phorboxazole A derivatives on the adhesive properties of breast cancer and glioblastoma cells. The plates for the adhesion assays were precoated with the extracellular matrix proteins laminin, fibronectin, or type IV collagen (each at a final concentration of 1 μg/ml in PBS) overnight at 4° C. and dried. On the day of the experiment, the wells were rehydrated and blocked with 10% bovine serum albumin in PBS for 1 hour at room temperature and used for the adhesion assays, as described below.
(§7) The effects of synthetic phorboxazole A and specific derivatives on adhesion of breast cancer and glioblastoma cells was studied. Exponentially growing cells in DMEM were incubated with phorboxazole compounds or genistein as a control at concentrations ranging from 0.1 μM to 1 μM for 24 hours in a humidified 5% CO2 atmosphere. DMSO (0.1%) was included as a vehicle control. After treatment, cells were detached from the flasks with 0.05% trypsin (Life Technologies) resuspended in DMEM, incubated at 37° C. for 2 hours to allow them to recover from the trypsinization stress and examined for their ability to adhere to plates precoated with ECM proteins.
(§8) In adhesion assays, cells were centrifuged, washed twice with serum-free DMEM, counted and resuspended in serum-free DMEM to a final concentration of 2.5×10^5 cells/ml. […] The adherent fraction was quantitated using MTT (3-[4,5-dimethylthiazol-2-yl]-2,5-diphenyltetrazolium bromide) assays. […] The absorbance of each well was measured in a microplate reader (Labsystems) at 540 nm and a reference wavelength of 690 nm.
(§9) To translate the OD540 values into the number of cells in each well, the OD540 values were compared to those on standard OD540-versus-cell number curves generated for each cell line. The adherent fractions of cells treated with phorboxazole A derivatives were compared to those of DMSO-treated control cells and the percent inhibition of adhesion was determined using the formula: [formula]
(§10) Each treatment condition was evaluated in duplicate in 3 independent experiments. The IC50 values were calculated by non-linear regression analysis. […]

[5] = test system: U373 glioblastoma cells; assay: Matrigel invasion assay (Boyden chambers); type: cell-based; details: Homo sapiens, U373 MG, read-out: IC50, inhibition of glioblastoma cell invasion through Matrigel
Method: The in vitro invasiveness of human brain tumor cell lines U-373 MG and breast cancer cell lines BT-20 and MDA-MB-231 cells was assayed using a previously published method which employs Matrigel™-coated Costar 24-well transwell cell culture chambers (“Boyden chambers”) with 8.0-μm-pore polycarbonate filter inserts (Albini,et.al, 1987, Cancer Res., 47:3239-3245). The chamber filters were coated with 50 μg/ml of Matrigel™ matrix, incubated overnight at room temperature under a laminar flow hood and stored at 4° C. Matrigel™ matrix is made up of several components of the extracellular matrix (ECM), including collagen, laminin and proteo-glycans. The cancer cells were incubated with 500, 250, 125, 62.5, and 31.2 nM concentrations of the synthetic Phorboxazole compounds for 72 hours.
On the day of the experiment, the coated inserts were rehydrated with 0.5 ml serum-free DMEM containing 0.1% bovine serum albumin for 1-2 hours. The treated cells were trypsinized, washed twice with serum-free DMEM containing BSA, counted and resuspended at 1×10^5 cells/ml. A 0.5 ml cell suspension containing 5×10^4 cells in a serum-free DMEM was added to the Matrigel™-coated and rehydrated filter inserts. A volume of 750 μl of NIH fibroblast conditioned medium was placed as a chemoattractant in 24-well plates and the inserts were placed in wells and incubated at 37° C. for 48 hours.
The invasive cells that migrated to the lower side of the filter were fixed, stained with Hema-3 solutions and counted under microscope. Five to 10 random fields per filter were counted to determine the mean (±SE) values for the invasive fraction. The invasive fractions of cells treated with phorboxazole A derivatives were compared to those of DMSO treated control cells and the percent inhibition of invasiveness was determined using the formula: [formula]
Each treatment condition was evaluated in duplicate in 3 independent experiments. IC50 values were calculated by non-linear regression analysis using Graphpad Prisin Software Version 2.0 (Graphpad Software Inc., San Diego, Calif.).

[6] = test system: U373 glioblastoma cells; assay: In vitro adhesion assay to ECM proteins, U373; type: cell-based, human; details: laminin-, fibronectin-, and collagen-coated plates, 0.1 μM to 1 μM for 24 hours
Method: as §5, §6, §7, §8, §9, §10

[7] = test system: MDA-MB-231 breast cancer cells; assay: In vitro adhesion assay to ECM proteins, MDA-MB-231; type: cell-based, human; details: laminin-, fibronectin-, and collagen-coated plates, 0.1 μM to 1 μM for 24 hours
Method: as §5, §6, §7, §8, §9, §10

[8] = NALM-6 (leukemia, ALL), 24-36 hours, read-out: IC50 [MTT]
[9] = U373 (brain tumor, glioblastoma), 24-36 hours
[10] = BT-20 (breast cancer), 24-36 hours, read-out: IC50 [MTT]

Structure (SMILES) | IC50 ([1]; NALM-6, read-out: IC50 [MTT]) [nM] | IC50 [2] [nM] | IC50 ([3]; BT-20, read-out: IC50 [MTT]) [nM] | IC50 [1, 8] [nM] | IC50 [2, 9] [nM] | IC50 [3, 10] [nM] | Inhibition of cell adhesion [4] | IC50 [5] [nM] | Inhibition of cell adhesion [6] | Inhibition of cell adhesion [7] | IC50 ([5]; cells treated 72 hours, invasion 48 hours) [nM]
C=C1C[C@@H]2C[C@@H]3C[C@@H](O)C[C@@H](O3)c3coc(n3)/C=C/C[C@H]3O[C@@H](/C(C)=C/c4coc(C)n4)[C@H](C)[C@@H](OC(=O)/C=C\C[C@@H](C1)O2)[C@H]3C [Compound 2, 32-Methyl-phorboxolide A (C1-C32 analog)] | > 2000 | > 2000 | > 2000 | – | – | – | – | – | – | – | –
C=C1C[C@@H]2C[C@@H]3C[C@@H](O)C[C@@H](O3)c3coc(n3)/C=C/C[C@H]3O[C@@H](/C(C)=C/c4coc(C[C@]5(O)C[C@H](OC)C[C@H](CO)O5)n4)[C@H](C)[C@@H](OC(=O)/C=C\C[C@@H](C1)O2)[C@H]3C [Compound 3, C1-C38 Phorboxazole A] | – | – | – | > 2000 | > 2000 | > 2000 | – | – | – | – | –
COC(=O)/C=C/C[C@H]1O[C@@H](/C(C)=C/c2coc(C[C@]3(O)C[C@H](OC)C[C@H]([C@H](O)/C=C(C)/C=C/[C@@H](C/C=C/Br)OC)O3)n2)[C@H](C)[C@@H](OC(C)=O)[C@H]1C [Compound 4, 24-O-Acetyl-18-methyl-phorboxylate (C18-C46 analog)] | > 2000 | > 2000 | > 2000 | – | – | – | active | 152 | active | active | –
COC(=O)C[C@]1(O)C[C@H](OC)C[C@H]([C@H](O)/C=C(C)/C=C/[C@@H](C/C=C/Br)OC)O1 [Compound 5, 31-Methyl-phorboxylate (C31-C46 analog)] | > 2000 | > 2000 | > 2000 | – | – | – | active | 422 | active | active | –
C=C1C[C@@H]2C[C@@H]3C[C@@H](O)C[C@@H](O3)c3coc(n3)/C=C/C[C@H]3O[C@@H](/C(C)=C/C(CO)NC(=O)C[C@]4(O)C[C@H](OC)C[C@H]([C@H](O)/C=C(C)/C=C/[C@@H](C/C=C/Br)OC)O4)[C@H](C)[C@@H](OC(=O)/C=C\C[C@@H](C1)O2)[C@H]3C (stereo partly drawn) [Compound 6, 29-Phorboxamide A (hydrated analog)] | – | – | – | > 2000 | > 2000 | > 2000 | active | – | active | active | < 125
C#CC[C@H](/C=C/C(C)=C/[C@@H](O)[C@H]1C[C@@H](OC)C[C@](Cc2nc(/C=C(\C)[C@@H]3O[C@@H]4C/C=C/c5nc(co5)[C@H]5C[C@H](O)C[C@@H](C[C@H]6CC(=C)C[C@H](C/C=C\C(=O)O[C@@H]([C@H]4C)[C@H]3C)O6)O5)co2)(OC)O1)OC [Compound 7, 45,46-Dehydrobromo-33-O-methyl-Phorboxazole A] | – | – | – | > 2000 | > 2000 | > 2000 | – | – | – | – | –
C=C1C[C@@H]2C[C@@H]3C[C@@H](O)C[C@@H](O3)c3coc(n3)/C=C/C[C@H]3O[C@@H](/C(C)=C/c4coc(C[C@]5(O)C[C@H](OC)C[C@H]([C@H](O)/C=C(C)/C=C/[C@@H](C/C=C/Br)OC)O5)n4)[C@H](C)[C@@H](OC(=O)CCC[C@@H](C1)O2)[C@H]3C [Compound 10, 2,3-Dihydrophorboxazole A] | – | – | – | > 2000 | > 2000 | > 2000 | – | – | – | – | –
